Data on 28 compounds can be found in patent publication US20100168102A9, “Amide Derivatives as Kinase Inhibitors” (Devgen NV, priority 2005, published 2010).

Like-named read-outs stand apart in the source and are kept apart here.

The target of assay [1] is T1, human ROCKα/ROCKII mix (Homo sapiens, UniProt O75116).
T1 construct: purchased Upstate Biotechnology 14-451
The assay is described as follows: Biochemical assay for ROCK (fluorescence polarization, ROCK IMAP Kit). Background: Polarisation of emitted light reports the rotation of a fluorescent probe.

The target in assay [2] is T2, PKC epsilon (Homo sapiens, UniProt Q02156).
T2 construct: purchased Invitrogen P2282
T2 sequence (Q02156 1-737): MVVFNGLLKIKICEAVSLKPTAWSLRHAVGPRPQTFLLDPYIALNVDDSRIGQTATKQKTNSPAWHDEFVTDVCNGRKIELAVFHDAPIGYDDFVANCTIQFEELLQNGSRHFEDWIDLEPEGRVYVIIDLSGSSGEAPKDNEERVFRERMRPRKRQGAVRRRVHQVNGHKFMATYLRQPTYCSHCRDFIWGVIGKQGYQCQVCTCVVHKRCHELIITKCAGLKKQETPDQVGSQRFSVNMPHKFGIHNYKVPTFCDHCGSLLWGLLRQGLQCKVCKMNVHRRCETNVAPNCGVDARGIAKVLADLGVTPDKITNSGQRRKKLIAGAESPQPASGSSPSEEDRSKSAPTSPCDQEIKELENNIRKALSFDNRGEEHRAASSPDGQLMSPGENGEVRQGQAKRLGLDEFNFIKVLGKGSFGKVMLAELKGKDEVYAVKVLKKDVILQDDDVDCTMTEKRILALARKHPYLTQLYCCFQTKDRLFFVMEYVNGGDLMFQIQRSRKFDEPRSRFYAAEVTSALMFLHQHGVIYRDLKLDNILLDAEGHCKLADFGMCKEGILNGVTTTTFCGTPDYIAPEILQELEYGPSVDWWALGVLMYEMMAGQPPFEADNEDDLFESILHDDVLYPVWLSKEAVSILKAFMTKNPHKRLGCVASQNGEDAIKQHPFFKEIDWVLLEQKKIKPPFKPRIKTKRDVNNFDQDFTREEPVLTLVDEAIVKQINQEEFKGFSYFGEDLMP
The assay is described as follows: Biochemical assay for PKC epsilon (fluorescence polarization, Protein Kinase C Assay Kit, Red). As to conditions: read-out: IC50 μM PKCε. The method, boiled down:
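PKC epsilon at 10 ng/ml final was preincubated 30 min at room temperature with compound in HEPES pH 7.4 with DTT and Triton X-100. ATP/protein substrate was then added in buffer with MgCl2 and CaCl2 for 80 min. The reaction was stopped with EDTA, phosphorylation was detected by fluorescence polarization with rhodamine tracer and anti-phosphoserine antibody, and IC50 values came from curve fits.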

The mark [3] stands for this setting: Table 2, compounds of Formula XIII.
[4] abbreviates: compounds of Formula XIV, Table 3.

T1 sequence (O75116 11-552 limits assumed): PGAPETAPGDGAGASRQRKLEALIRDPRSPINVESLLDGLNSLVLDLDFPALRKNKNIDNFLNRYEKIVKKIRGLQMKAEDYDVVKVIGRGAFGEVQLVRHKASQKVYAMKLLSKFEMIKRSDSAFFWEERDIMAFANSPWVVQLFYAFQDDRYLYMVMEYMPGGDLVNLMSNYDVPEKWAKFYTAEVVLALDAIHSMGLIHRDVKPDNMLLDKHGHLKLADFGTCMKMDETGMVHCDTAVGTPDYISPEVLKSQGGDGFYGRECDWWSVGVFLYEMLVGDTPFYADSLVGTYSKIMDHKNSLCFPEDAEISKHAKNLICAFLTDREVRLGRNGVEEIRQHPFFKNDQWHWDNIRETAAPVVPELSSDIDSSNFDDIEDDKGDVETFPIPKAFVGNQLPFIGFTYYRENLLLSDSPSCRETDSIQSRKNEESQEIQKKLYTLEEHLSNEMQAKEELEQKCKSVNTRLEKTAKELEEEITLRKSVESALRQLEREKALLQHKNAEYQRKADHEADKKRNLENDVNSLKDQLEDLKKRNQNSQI

A word on the IC50: it is the concentration needed to halve the response being measured. Take `NC(CNC(=O)C1Cc2ccccc21)c1ccc(C(=O)Nc2ccncc2)cc1` (centres unmarked) [Compound 161, Bicyclo[4.2.0]octa-1,3,5-triene-7-carboxylic acid {2-amino-2-[4-(pyridin-4-ylcarbamoyl)-phenyl]-ethyl}-amide]: the figures for the IC50 in assay [1] (setting [3]) and in assay [2] (setting [3]) were 0.05 to 0.5 µM and 0.5 to 5 µM, respectively.
For the compound `NC(c1ccc(C(=O)Nc2ccncc2)cc1)C1CCCN1C(=O)C1(c2ccc(F)cc2)CCC1` (centres unmarked) [Compound 575, 4-(Amino-{1-[1-(4-fluoro-phenyl)-cyclobutanecarbonyl]-pyrrolidin-2-yl}-methyl)-N-pyridin-4-yl-benzamide], the IC50 in assay [1] and in assay [2] was 0.5 to 5 µM throughout.
Regarding `NC(CC(=O)NCCc1ccc(Cl)cc1)c1ccc(C(=O)Nc2ccncc2)cc1` (centres unmarked) [Compound 299, 4-{1-Amino-2-[2-(4-chloro-phenyl)-ethylcarbamoyl]-ethyl}-N-pyridin-4-yl-benzamide], the IC50 in assay [1] (setting [4]) was in the range of 0.05 to 0.5 µM; in assay [2] (setting [4]) it was 0.5 to 5 µM.
As to `CC(C)=NOC(C)C(=O)NCC(N)c1ccc(C(=O)Nc2ccncc2)cc1` (centres unmarked) [Compound 59, 4-[1-Amino-2-(2-isopropylideneaminooxy-propionylamino)-ethyl]-N-pyridin-4-yl-benzamide], the IC50 in assay [1] (setting [3]) and in assay [2] (setting [3]) was 0.5 to 5 µM in each case.
As to `NC(CC(=O)NC1CCCc2ccccc21)c1ccc(C(=O)Nc2ccncc2)cc1` (single isomer, unassigned) [Compound 221], the IC50 in assay [1] (setting [4]) and in assay [2] (setting [4]) was 0.05 to 0.5 µM in each case.
As for `CC(C)(C(=O)N1CCCC1C(N)c1ccc(C(=O)Nc2ccncc2)cc1)c1ccc(Cl)cc1` (centres unmarked) [Compound 563, 4-(Amino-{1-[2-(4-chloro-phenyl)-2-methyl-propionyl]-pyrrolidin-2-yl}-methyl)-N-pyridin-4-yl-benzamide], the half-maximal inhibitory concentration (IC50) in assay [1] and in assay [2] was 0.5 to 5 µM in each case.
On to `Cc1ccccc1CC(=O)N(C)CC(N)c1ccc(C(=O)Nc2ccncc2)cc1` (centres unmarked) [Compound 422, 4-{1-Amino-2-[methyl-(2-o-tolyl-acetyl)-amino]-ethyl}-N-pyridin-4-yl-benzamide], for which the IC50 in assay [1] fell in the range of 0.5 to 5 µM; in assay [2] it was 5 to 50 µM.
On to `NC(CC(=O)Nc1ccccc1)c1ccc(C(=O)Nc2ccncc2)cc1` (centres unmarked) [Compound 316], for which the half-maximal inhibitory concentration (IC50) in assay [1] (setting [4]) fell in the range of 0.05 to 0.5 µM; in assay [2] (setting [4]) it was 0.5 to 5 µM.
Regarding `COc1ccc2c(c1)CCCC2C(=O)NCC(N)c1ccc(C(=O)Nc2ccncc2)cc1` (centres unmarked) [Compound 355, 6-Methoxy-1,2,3,4-tetrahydro-naphthalene-1-carboxylic acid {2-amino-2-[4-(pyridin-4-ylcarbamoyl)-phenyl]-ethyl}-amide], the IC50 in assay [1] (setting [3]) and in assay [2] (setting [3]) was 0.05 to 0.5 µM each time.
Take `NC(CNC(=O)C1CCOc2ccccc21)c1ccc(C(=O)Nc2ccncc2)cc1` (centres unmarked) [Compound 390, Chroman-4-carboxylic acid {2-amino-2-[4-(pyridin-4-ylcarbamoyl)-phenyl]-ethyl}-amide]: the half-maximal inhibitory concentration (IC50) in assay [1] (setting [3]) and in assay [2] (setting [3]) was 0.05 to 0.5 µM throughout.
As for `CCOC(=O)CCNC(=O)NCC(N)c1ccc(C(=O)Nc2ccncc2)cc1` (centres unmarked) [Compound 6, 3-(3-{2-amino-2-[4-(pyridin-4-ylcarbamoyl)-phenyl]-ethyl}-ureido)-propionic acid ethyl ester], the half-maximal inhibitory concentration (IC50) in assay [1] was 0.5 to 5 µM; in assay [2] it was 5 to 50 µM.
Turning to `NC(CC(=O)NCc1cc(C(F)(F)F)cc(C(F)(F)F)c1)c1ccc(C(=O)Nc2ccncc2)cc1` (centres unmarked) [Compound 268, 4-[1-Amino-2-(3,5-bis-trifluoromethyl-benzylcarbamoyl)-ethyl]-N-pyridin-4-yl-benzamide], the results for the IC50 in assay [1] (setting [4]) and in assay [2] (setting [4]) were 0.05 to 0.5 µM and 0.5 to 5 µM, respectively.
`NC(CNC(=O)CCc1cccnc1)c1ccc(C(=O)Nc2ccncc2)cc1` (centres unmarked) [Compound 166, 4-[1-Amino-2-(3-pyridin-3-yl-propionylamino)-ethyl]-N-pyridin-4-yl-benzamide]: the IC50 was in the range of 0.5 to 5 µM in assay [1] (setting [3]) and 5 to 50 µM in assay [2] (setting [3]).
`NC(c1ccc(C(=O)Nc2ccncc2)cc1)C1CCCN1C(=O)C1CC(=O)c2ccccc21` (centres unmarked) [Compound 609, 4-{Amino-[1-(3-oxo-indane-1-carbonyl)-pyrrolidin-2-yl]-methyl}-N-pyridin-4-yl-benzamide]: the IC50 in assay [1] and in assay [2] was 0.5 to 5 µM throughout.
Take `COc1ccc(CC(=O)N(C)CC(N)c2ccc(C(=O)Nc3ccncc3)cc2)c(OC)c1` (centres unmarked) [Compound 430, 4-(1-Amino-2-{[2-(2,4-dimethoxy-phenyl)-acetyl]-methyl-amino}-ethyl)-N-pyridin-4-yl-benzamide]: the half-maximal inhibitory concentration (IC50) fell in the range of 0.05 to 0.5 µM in assay [1] and 5 to 50 µM in assay [2].
Take `COc1ccc(CC(=O)N2CCCC2C(N)c2ccc(C(=O)Nc3ccncc3)cc2)c(OC)c1` (centres unmarked) [Compound 531, 4-(Amino-{1-[2-(2,4-dimethoxy-phenyl)-acetyl]-pyrrolidin-2-yl}-methyl)-N-pyridin-4-yl-benzamide]: the half-maximal inhibitory concentration (IC50) in assay [1] and in assay [2] was 0.5 to 5 µM throughout.
In the case of `CN(CC(N)c1ccc(C(=O)Nc2ccncc2)cc1)C(=O)C1(c2ccc(F)c(F)c2)CCC1` (centres unmarked) [Compound 487, 4-(1-Amino-2-{[1-(3,4-difluoro-phenyl)-cyclobutanecarbonyl]-methyl-amino}-ethyl)-N-pyridin-4-yl-benzamide], the IC50 in assay [1] and in assay [2] was 0.5 to 5 µM each time.
As to `NC(CNC(=O)c1cccc(Cn2cccn2)c1)c1ccc(C(=O)Nc2ccncc2)cc1` (centres unmarked) [Compound 103, 4-{1-amino-2-[(3-pyrazol-1ylmethyl)-benzoylamino]-ethyl}-N-pyridin-4-yl-benzamide], the IC50 in assay [1] (setting [3]) and in assay [2] (setting [3]) was 0.5 to 5 µM throughout.
Turning to `COc1ccc(CC(=O)N2CCCC2C(N)c2ccc(C(=O)Nc3ccncc3)cc2)cc1F` (centres unmarked) [Compound 571, 4-(Amino-{1-[2-(3-fluoro-4-methoxy-phenyl)-acetyl]-pyrrolidin-2-yl}-methyl)-N-pyridin-4-yl-benzamide], the IC50 is 0.5 to 5 µM in assay [1] and 5 to 50 µM in assay [2].
Take `NC(CNC(=O)CNC(=O)c1ccco1)c1ccc(C(=O)Nc2ccncc2)cc1` (centres unmarked) [Compound 56, Furan-2-carboxylic acid ({2-amino-2-[4-(pyridin-4-ylcarbamoyl)-phenyl]-ethylcarbamoyl}-methyl)-amide]: the IC50 in assay [1] (setting [3]) lay within 0.05 to 0.5 µM; in assay [2] (setting [3]) it was 5 to 50 µM.
With `NC(c1ccc(C(=O)Nc2ccncc2)cc1)C1CCCN1C(=O)C1CCSc2ccccc21` (centres unmarked) [Compound 618, 4-{Amino[1-(thiochroman-4-carbonyl)-pyrrolidin-2-yl]-methyl}-N-pyridin-4-yl-benzamide], the IC50 in assay [1] and in assay [2] was 0.5 to 5 µM throughout.
Take `CC(C)(C)c1ccc(NC(=S)NCC(N)c2ccc(C(=O)Nc3ccncc3)cc2)cc1` (centres unmarked) [Compound 18, 4-{1-amino-2-[3-(4-tert-butyl-phenyl)-thioureido]-ethyl}-N-pyridin-4-yl-benzamide]: the results for the IC50 in assay [1] and in assay [2] were 0.5 to 5 µM and 5 to 50 µM, respectively.
`NC(c1ccc(C(=O)Nc2ccncc2)cc1)C1CCCN1C(=O)C1CCc2cc(F)ccc21` (centres unmarked) [Compound 610, 4-{Amino-[1-(5-fluoro-indane-1-carbonyl)-pyrrolidin-2-yl]-methyl}-N-pyridin-4-yl-benzamide]: the IC50 in assay [1] fell in the range of 0.5 to 5 µM; in assay [2], 5 to 50 µM.
Consider `Cc1cccc(C(=O)NCC(N)c2ccc(C(=O)Nc3ccncc3)cc2)c1` (centres unmarked) [Compound 85, 4-[1-amino-2-(3-methyl-benzoylamino)-ethyl]-N-pyridin-4-yl-benzamide], for which the IC50 in assay [1] (setting [3]) and in assay [2] (setting [3]) was 0.5 to 5 µM throughout.
In the case of `CN(CC(N)c1ccc(C(=O)Nc2ccncc2)cc1)C(=O)C1CCCc2sccc21` (centres unmarked) [Compound 520, 4,5,6,7-Tetrahydro-benzo[b]thiophene-4-carboxylic acid {2-amino-2-[4-(pyridin-4-ylcarbamoyl)-phenyl]-ethyl}-methyl-amide], the IC50 lay in the range of 0.5 to 5 µM in assay [1] and 5 to 50 µM in assay [2].
As for “4-[1-amino-2-(2-morpholin- 4-yl-ethylcarbamoyl)-ethyl]- N-pyridin-4-yl-benzamide [Compound 177]”, the concentration for half-maximal inhibition (IC50) in assay [1] (setting [4]) was in the range of 0.05 to 0.5 µM; in assay [2] (setting [4]), 5 to 50 µM.
In the case of “4-(1-Amino-2-{[2-(3-chloro- phenyl)-acetyl]-methyl- amino}-ethyl)- N-pyridin-4-yl-benzamide [Compound 459]”, the IC50 in assay [1] lay within 0.5 to 5 µM; in assay [2] it was 5 to 50 µM.
As for “4-{1-Amino-2-[(pyridin-4- ylmethyl)-carbamoyl]-ethyl}- N-pyridin-4-yl-benzamide [Compound 276]”, the values for the 50% inhibitory concentration (IC50) in assay [1] (setting [4]) and in assay [2] (setting [4]) were 0.05 to 0.5 µM and 0.5 to 5 µM, respectively.
